Results published in US20260151516A1, “NEW PET TRACER FOR IMAGING OF THE FUNCTIONAL HEPATIC RESERVE” (Medizinische Universität Innsbruck, priority 2022, published 2026).
Where “and” joins values, the source holds several entries; their conditions need not be identical. Equal values may be shown once.

Key:
[1] = Partition coefficient (log D), n-Octanol/PBS; format: physicochemical; conditions: read-out: logD
Method: The vials were vortexed for 5 min at 1,500 rpm and then centrifuged for 5 min at 20,000 rcf (Eppendorf Centrifuge 5424).

[2] = Ligand stability in PBS (radio-HPLC); format: physicochemical; conditions: 37° C., over the time course of 2 h
Method: (§1) Ligand stability in human blood serum (n=2) and PBS (n=1) was determined for different time points (2 min, 30 min, 60 min, 120 min). Therefore, approx. 5 MBq of radioligand was added to 1 mL of fresh human serum or PBS and incubated at 37° C. At each given time point 100 μL of the mixture were transferred to a 1.5 mL Eppendorf tube containing 100 μL of acetonitrile. The vial was vortexed and centrifuged for 2 min at 14,000 rpm before 100 μL of the supernatant were diluted with 200 μL of water and injected into analytical radio-HPLC. The PBS solution was directly injected into the radio-HPLC. Ligand stability was determined by integrating the areas of the signals in the radio chromatogram in relation to the signal of the intact ligand.

Recombinant human ASGR1 = molecular target: T1, Recombinant human ASGR1 (Homo sapiens, UniProt P07306); test: In vitro binding study, isolated receptor-based assay against ^125I-Asialoorosomucoid; conditions: recombinant human ASGR1, ^125I-Asialoorosomucoid 50 nM, n = 3; method used [^natGa]Ga-NODAGA-TriGalactan
T1 construct: His tag (inferred from immobilisation on Ni-coated plates)
T1 sequence (P07306 1-291): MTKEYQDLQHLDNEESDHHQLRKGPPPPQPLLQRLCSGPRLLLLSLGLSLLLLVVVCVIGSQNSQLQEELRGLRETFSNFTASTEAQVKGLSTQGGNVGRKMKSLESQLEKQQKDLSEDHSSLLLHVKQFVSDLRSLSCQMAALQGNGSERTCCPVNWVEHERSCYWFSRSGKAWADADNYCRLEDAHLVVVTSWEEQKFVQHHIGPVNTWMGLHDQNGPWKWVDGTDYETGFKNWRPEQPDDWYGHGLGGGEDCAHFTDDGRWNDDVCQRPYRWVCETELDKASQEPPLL
Method: Recombinant human ASGR1 was seeded out into Ni-coated 96 well plates (Pierce, Thermo Fisher) in PBS at a concentration of 2 μg/mL for at least 2 h at room temperature under mild agitation (200 1/min). Unbound receptor was removed by washing the wells twice with binding buffer (25 mM Tris×HCl, 150 mM NaCl, 0.05% TWEEN 20, pH=7.4). Next 140 μL of binding buffer as well as 20 μL of a 19 mM CaCl2-solution were added to the wells followed by addition of either 20 μL of PBS (control) or 20 μL of [^natGa]Ga-NODAGA-TriGalactan in PBS. Final ligand concentrations were ranging from 10^−5-10^−11 M. Lastly 20 μL of ^125I-Asialoorosomucoid (50 nM, 2.4 kBq per well) were added and the plate was incubated for 1 hour at room temperature under mild agitation (200 rpm). Supernatants were removed and the wells washed twice with 200 μL of PBS before receptor bound activity was released by addition of 200 μL of hot (60° C.) 1 M NaOH. Wells were incubated with NaOH for 10 min. Lysates were removed and the wells washed again twice with 200 μL of hot NaOH. The activity content in the lysates was quantified in a γ-counter and the values plotted in excel. Fitting of the sigmoidal binding curve and the calculation of the IC50 value was done with Excel's solver plugin.

[3] = Biodistribution studies incl. blocking experiments; format: in vivo; conditions: healthy BALB/c mice
Method: For biodistribution studies 6 week old female BALB/c mice (n=3) were injected with 0.1 nmol (100 μL, approx. 1 MBq) of labelled compound via the lateral tail vein and sacrificed after 10, 30, or 60 min by cervical dislocation. The mice were dissected, blood and organs (spleen, pancreas, stomach, intestine, liver, kidney, heart, lung, muscle, and bone) were weighed, and their activity measured in a γ-counter. For blocking experiments, mice were co-injected with 100 μL of a 277 mM Galactose/PBS solution. In case of [^68Ga]Ga-TRAP-GalNAc a 277 mM N-Acetylgalactose solution was used.

human serum = test: Protein binding in fresh human serum (Sephadex MicroSpin G-50 columns); format: in vitro ADME; conditions: 37° C.
Method: Protein binding was determined for different time points (2 min, 30 min, 60 min, 120 min) in triplicates using Sephadex MicroSpin G-50 columns (GE-Healthcare, Chicago, Illinois, USA). The columns were spun initially at 20,000 rcf for 1 min to remove the storage buffer. Then approx. 5 MBq of radioligand was added to 1 mL of fresh human serum and incubated at 37° C. At each given timepoint 25 μL of the mixture was loaded on to the column, which was then spun at 20,000 rcf for 1 min. The activity content on the column (free radioligand) and in the filtrate (protein bound fraction) was quantified in a γ-counter.

[4] = Ligand stability in human blood serum (radio-HPLC); format: in vitro ADME; conditions: for Serum stability (% of intact ligand): 37° C.
Method: as §1

[5] = 30 min p.i., blocking with 277 mM galactose

O=C(O)CN1CCN(CC(=O)O)CCN([C@H](CCC(=O)NCCCC(=O)NC(COCc2cn(CCOCCOCCO[C@@H]3O[C@H](CO)[C@H](O)[C@H](O)[C@H]3O)nn2)(COCc2cn(CCOCCOCCO[C@@H]3O[C@H](CO)[C@H](O)[C@H](O)[C@H]3O)nn2)COCc2cn(CCOCCOCCO[C@@H]3O[C@H](CO)[C@H](O)[C@H](O)[C@H]3O)nn2)C(=O)O)CC1 [[^68Ga]Ga-NODAGA-TriGalactan, metal not drawn]
logD [1]: -4.33 ± 0.09
Stability in PBS (% intact tracer) [2]: > 99%
IC50 (Recombinant human ASGR1): 1.7 nM
Biodistribution Blood ([3]; 10 min p.i.): 3.3 ± 0.2 % ID/g
Biodistribution Femur ([3]; 10 min p.i.): 0.87 ± 0.52 % ID/g
Biodistribution Intestine ([3]; 10 min p.i.): 1.13 ± 0.07 % ID/g
Biodistribution Kidneys ([3]; 10 min p.i.): 8.2±0.5 % ID/g and 8.15 ± 0.54 % ID/g
Biodistribution Liver ([3]; 10 min p.i.): 33.4±0.9 % ID/g and 33.4 ± 0.88 % ID/g
Biodistribution Lung ([3]; 10 min p.i.): 2.14 ± 0.13 % ID/g
Biodistribution Muscle ([3]; 10 min p.i.): 0.77 ± 0.02 % ID/g
Biodistribution Pancreas ([3]; 10 min p.i.): 0.87 ± 0.12 % ID/g
Biodistribution Spleen ([3]; 10 min p.i.): 0.78 ± 0.05 % ID/g
Biodistribution Blood ([3]; 30 min p.i.): 0.89 ± 0.09 % ID/g
Biodistribution Femur ([3]; 30 min p.i.): 0.22 ± 0.02 % ID/g
Biodistribution Heart ([3]; 30 min p.i.): 0.40 ± 0.03 % ID/g
Biodistribution Intestine ([3]; 30 min p.i.): 1.95 ± 0.17 % ID/g
Biodistribution Kidneys ([3]; 30 min p.i.): 2.83 ± 0.18 % ID/g
Biodistribution Liver ([3]; 30 min p.i.): 32.2±3.7 % ID/g
Biodistribution Lung ([3]; 30 min p.i.): 0.74 ± 0.03 % ID/g
Biodistribution Muscle ([3]; 30 min p.i.): 0.23 ± 0.03 % ID/g
Biodistribution Pancreas ([3]; 30 min p.i.): 0.31 ± 0.05 % ID/g
Biodistribution Spleen ([3]; 30 min p.i.): 0.27 ± 0.02 % ID/g
Biodistribution Stomach ([3]; 30 min p.i.): 1.05 ± 0.08 % ID/g
Biodistribution Blood [3, 5]: 1.19 ± 0.33 % ID/g
Biodistribution Femur [3, 5]: 0.37 ± 0.16 % ID/g
Biodistribution Heart [3, 5]: 0.44 ± 0.03 % ID/g
Biodistribution Intestine [3, 5]: 0.77 ± 0.19 % ID/g
Biodistribution Kidneys [3, 5]: 4.19 ± 0.29 % ID/g
Biodistribution Liver [3, 5]: 13.9±1.0 % ID/g and 14.6 ± 0.15 % ID/g
Biodistribution Lung [3, 5]: 0.97 ± 0.04 % ID/g
Biodistribution Muscle [3, 5]: 0.43 ± 0.20 % ID/g
Biodistribution Pancreas [3, 5]: 0.45 ± 0.01 % ID/g
Biodistribution Spleen [3, 5]: 0.32 ± 0.03 % ID/g
Biodistribution Stomach [3, 5]: 0.68 ± 0.11 % ID/g
Biodistribution Blood ([3]; 60 min p.i.): 0.3±0.04 % ID/g and 0.34 ± 0.04 % ID/g
Biodistribution Femur ([3]; 60 min p.i.): 0.26 ± 0.19 % ID/g
Biodistribution Heart ([3]; 60 min p.i.): 0.17 ± 0.00 % ID/g
Biodistribution Intestine ([3]; 60 min p.i.): 3.0±0.4 % ID/g and 2.99 ± 0.43 % ID/g
Biodistribution Kidneys ([3]; 60 min p.i.): 1.51 ± 0.10 % ID/g
Biodistribution Liver ([3]; 60 min p.i.): 27.7±3.1 % ID/g and 27.7 ± 3.12 % ID/g
Biodistribution Lung ([3]; 60 min p.i.): 0.38 ± 0.10 % ID/g
Biodistribution Muscle ([3]; 60 min p.i.): 0.17 ± 0.02 % ID/g
Biodistribution Pancreas ([3]; 60 min p.i.): 0.19 ± 0.09 % ID/g
Biodistribution Spleen ([3]; 60 min p.i.): 0.16 ± 0.02 % ID/g
Biodistribution Stomach ([3]; 60 min p.i.): 0.92 ± 0.04 % ID/g
Protein binding (%) (human serum; 2 min): 7.6±3.9%
Protein binding (%) (human serum; 30 min): 5.5%
Protein binding (%) (human serum; 60 min): 9.2%
Protein binding (%) (human serum; 120 min): 13.6±3.2%
Serum stability (% of intact ligand) ([4]; 2 min): 99.8%
Serum stability (% of intact ligand) ([4]; 30 min): 97.6%
Serum stability (% of intact ligand) ([4]; 60 min): 98.5%
Serum stability (% of intact ligand) ([4]; 120 min): 92.9%
Stability in human blood serum (% intact tracer) ([4]; over the time course of 2 h): > 93%
